Here are results for six molecules from article PMC12217109, “Development of novel benzamide class I selective lysine deacetylase inhibitors as potent anticancer agents” (Journal of Enzyme Inhibition and Medicinal Chemistry, 2025).

The test system of data set [1] is UACC-257. Nature of the data set: NCI-60 cytotoxicity screen. The class given is cell-based, human. Conditions: for IC50: Homo sapiens, UACC-257, NCI-60, 48 h, melanoma. The text has this: (§1) Compounds 3–7 were submitted to the US National Cancer Institute (NIH, Bethesda, Maryland) for screening against the NCI-60 panel of human cancer cell lines, as per standard protocol.

The subject of data set [2] is acetylated tubulin. Put plainly: Flow cytometric analysis of tubulin acetylation in A2780 cells. Format: cell-based, human. Conditions: A2780, 24 h, 10 µM. The protocol:
(§2) The method was adapted from Ronzoni et al.[67] as previously described. A2780 cells were exposed to test compounds (0–10 µM) for 24 h, fixed with ice-cold ethanol (70% v/v) and permeabilised in the presence of 0.1% Triton-X. Non-specific protein binding was blocked using normal goat serum prior to incubation with or without primary antibodies raised against either anti-hyperacetylated Histone H4 (Penta) antibody (Upstate Biotechnology, USA) or acetylated tubulin (Sigma-Aldrich, UK), followed by incubation with FITC-conjugated secondary antibody (Dako). Cells were incubated in propidium iodide (PI) staining buffer (PBS with 50 µg/ml PI and 10 µg/ml RNase A) and subsequently analysed by flow cytometry (BD FACSCalibur; Becton Dickinson, UK). At least 15 000 events per sample were acquired and expression determined based on the detection of FITC fluorescence through the FL1 channel (530/30 nm bandpass optical filter), with cell doublets discriminated by forward/side scatter and background fluorescence omitted via comparison to unlabelled controls. Expression analysis was performed using CellQuest™ software (Becton Dickinson, UK).

For data set [3], the system named is H226. Nature of the data set: NCI-60 cytotoxicity screen. Format: cell-based. Conditions: Homo sapiens, NCI-60, 48 h, NSCLC.
Description: as §1

The test system of data set [4] is HT29. Put plainly: NCI-60 cytotoxicity screen. The class given is cell-based. Conditions: Homo sapiens, HT-29; NCI-60, 48 h, colon.
Description: as §1

Data set [5] concerns MALME-3M. Put plainly: NCI-60 cytotoxicity screen. The class given is cell-based. Conditions: Homo sapiens, read-out: MALME-3M cytotoxicity IC50, NCI-60, 48 h, melanoma.
Description: as §1

Data set [6] relates to A498. Nature of the data set: NCI-60 cytotoxicity screen. Conditions: Homo sapiens, NCI-60, 48 h, renal. Format: cell-based.
Description: as §1

Data set [7] deals with SK-OV-3. Nature of the data set: NCI-60 cytotoxicity screen. Format: cell-based. Conditions: Homo sapiens, NCI-60, 48 h, ovarian.
Description: as §1

The test system of data set [8] is HOP-92. Nature of the data set: NCI-60 cytotoxicity screen. Conditions: Homo sapiens, NCI-60, 48 h, NSCLC. Format: cell-based.
Description: as §1

In data set [9] the test system is MOLT-4. Nature of the data set: NCI-60 cytotoxicity screen. The class given is cell-based. Conditions: Homo sapiens, NCI-60, 48 h, leukaemia.
Description: as §1

The subject of data set [10] is acetylated histone H4. Nature of the data set: Flow cytometric analysis of histone H4 acetylation in A2780 cells. Format: cell-based, human. Conditions: A2780, 24 h, 5 µM or 10 µM. As for the experimental part:
as §2

Data set [11] deals with MCF7 breast cancer cell line. Put plainly: MTT cellular viability assay, MCF7. Conditions: Homo sapiens, 96 h. Format: cell-based. The protocol:
(§3) The human A2780 ovarian (#93112519) and MCF-7 breast (#86012803) cancer cell lines were obtained from the European Cell Culture Collection (ECACC; Salisbury, UK). The human cardiac ventricular AC16 cell line (#SCC109) was obtained from Merck/Millipore (UK). The A2780 and MCF-7 cell lines were maintained in RPMI-1640 medium and the AC16 cell line was maintained in DMEM/F12 medium. Culture medium of all three cell lines was supplemented with 10% heat-inactivated foetal bovine serum (FBS) and 2 mM L-glutamine, with the cells maintained in a humidified 5% CO2 atmosphere at 37 °C. The media was changed every 72h and the cells passaged via trypsinisation (Trypsin EDTA, 0.25%) before reaching confluency.
(§4) Cytotoxicity of each compound against the cell lines was assessed using the MTT assay. Cells were seeded in three replicates into 96-well plates at a density of 2 × 10^3/well for 24h to facilitate cell attachment. Media was replaced with that containing either test compound (0–10µM) for A2780 and MCF7 cell lines, single concentration (10 µM) test compound for AC16 cell line, or drug vehicle (dimethyl sulphoxide; DMSO) and the cells incubated for a further 96 h at 37 °C in a humidified 5% CO2 atmosphere. […] Chemosensitivity was thereafter assessed using a standard 3-[4, 5-dimethylthiazolyl]-2,5-diphenyltetrazolium bromide (MTT) assay, with the optical density determined at 540 nm as an indicator of cellular viability.

In data set [12] the test system is HeLa nuclear KDACs. Nature of the data set: Fluor-de-Lys HDAC fluorometric activity assay with HeLa nuclear extract. Conditions: for IC50: HeLa nuclear extract, up to 20 µM, read-out: HDAC Inhibition IC50; for IC20: concentration inhibiting HDAC activity by 20%, read-out: HDAC Inhibition IC20. The class given is biochemical. The protocol:
Total zinc-dependent KDAC (classes I, II and IV) activity was measured using the Fluor-de-Lys^TM HDAC fluorometric activity assay kit (BioMol, Exeter, UK), as per manufacturers protocol. Briefly, HeLa nuclear extract, potential inhibitor (5 nM–20 μM) and assay buffer were incubated in a 96-well fluorometric plate at 37 °C for 15 min. Acetylated substrate (100 μM) was added and the mixture incubated at 37 °C for a further 20 min. The developer was added and the mixture incubated at 37 °C for a further 15 min. Fluorescence was measured using a microplate reader (λex = 360 nm, λem = 460 nm). Percentage KDAC activity and thus KDAC inhibition was determined by quantification of fluorescence obtained in the presence versus absence of the respective inhibitor.

For data set [13], the system named is MDA-MB-231. Put plainly: NCI-60 cytotoxicity screen. Conditions: Homo sapiens, MDA-MB-231, read-out: MDA-MB-231 cytotoxicity IC50; NCI-60, 48 h, breast. Format: cell-based.
The test system of data set [14] is K562. Nature of the data set: NCI-60 cytotoxicity screen. Conditions: Homo sapiens, NCI-60, 48 h, leukaemia. The class given is cell-based.
Data set [15] deals with AC16 ventricular cardiac cell line. Nature of the data set: MTT cellular viability assay, AC16. The class given is cell-based. Conditions: Homo sapiens, 96 h, single concentration 10 µM. The protocol:
as §3, §4

Data set [16] is described as follows: Maximum tolerated dose evaluation in nude mice. The class given is in vivo. The text has this: Female CD-1 (Crl:CD1-Foxn1^nu) immunodeficient nude mice aged 6–12 weeks were used (Charles River, Margate UK). Mice were kept in stainless steel cages housed in isolation cabinets in an air-conditioned room with regular alternating cycles of light and darkness, receiving Teklad 2018 diet (Envigo, Blackthorn, UK) and water ad libitum. Before experimentation, all mice were allowed to acclimatise for one week to their environment. Environmental enrichment was provided in the form of Perspex “mouse houses”, chewing blocks and exercise wheels.
For evaluation of the maximum tolerated dose (MTD), two mice were treated at each of the three dose levels evaluated ([…]). […] Mice were observed daily for signs of deleterious effects and bodyweight measured frequently. […] If no deleterious effects were seen after at least 14 days of study, then the animals were euthanised by isoflurane anaesthesia followed by cervical dislocation, and the dose considered non-toxic.

In data set [17] the target is HDAC2 (Homo sapiens, UniProt Q92769). Nature of the data set: Inhibition of individual recombinant KDACs.
Sequence of HDAC2 (Q92769 whole entry): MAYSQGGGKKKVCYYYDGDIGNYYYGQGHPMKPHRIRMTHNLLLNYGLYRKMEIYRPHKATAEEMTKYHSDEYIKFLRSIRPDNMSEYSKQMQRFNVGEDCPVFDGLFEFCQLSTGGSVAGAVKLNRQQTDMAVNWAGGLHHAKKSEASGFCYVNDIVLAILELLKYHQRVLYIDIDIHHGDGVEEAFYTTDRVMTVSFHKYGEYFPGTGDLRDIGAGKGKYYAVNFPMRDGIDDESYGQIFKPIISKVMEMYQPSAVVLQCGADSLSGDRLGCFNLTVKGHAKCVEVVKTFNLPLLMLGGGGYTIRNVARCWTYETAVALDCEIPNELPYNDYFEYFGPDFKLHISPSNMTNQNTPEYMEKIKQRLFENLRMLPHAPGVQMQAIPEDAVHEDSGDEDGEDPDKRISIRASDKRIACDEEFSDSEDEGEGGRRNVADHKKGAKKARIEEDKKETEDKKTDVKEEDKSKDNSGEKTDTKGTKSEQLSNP

Entries after “also recorded” stand apart in the source; their conditions may differ.

As for `Nc1ccccc1NC(=O)c1ccc(CNC(=O)OCc2cccnc2)cc1` [Compound 1, Entinostat, reference compound], the IC50 in data set [1] worked out at 1430 nM; in [3] it was 600 nM; in data set [4], 1030 nM; in [5] it was 580 nM; in [6] it was 360 nM; in data set [7] it was 2750 nM. The IC50 is 40 nM in data set [8], 1930 nM in data set [9], 400 ± 100 nM in [11] and 3000 ± 200 nM in [12]. In data set [2], the “tubulin acetylation (flow cytometry)” value is given as “No change in Tubulin acetylation status; also recorded: neither 1 nor 7 induced a measurable change in tubulin acetylation”. Besides, the “acetylated histone H4 (flow cytometry)” value in data set [10] was “Increased acetylated histone H4”.

As to `C=C(CN1CCN(c2ccccc2C(F)(F)F)CC1)c1ccc(C(=O)Nc2ccccc2N)cc1` [Compound 3, N-(2-aminophenyl)-4–(3-(4–(2-(trifluoromethyl)phenyl)piperazin-1-yl)prop-1-en-2-yl)benzamide], the half-inhibitory concentration (IC50) in data set [1] amounted to 4670 nM; in [3], 7780 nM; in [4], 4090 nM; in [5], 4180 nM; in [6], 3550 nM; in data set [7], 11000 nM. In addition, the 50% inhibitory concentration (IC50) in data set [8] is 1850 nM; in data set [9], 130 nM; in [13], 4680 nM; in data set [11], 7300 ± 400 nM; in data set [14], 1540 nM; in [15], more than 10000 nM. The concentration for half-maximal inhibition (IC50) in data set [12] was more than 20000 nM. For the same molecule, the IC20 in [12] was 1500 ± 800 nM.

On to `C=C(CN1CCN(c2cccc(C(F)(F)F)c2)CC1)c1ccc(C(=O)Nc2ccccc2N)cc1` [Compound 4, N-(2-aminophenyl)-4–(3-(4–(3-(trifluoromethyl)phenyl)piperazin-1-yl)prop-1-en-2-yl)benzamide], for which the IC50 in [1] is 760 nM; in [3], 1890 nM; in [4], 1460 nM; in data set [6] it was 10 nM; in data set [8], 1510 nM; in data set [9], 130 nM. Also, the IC50 in data set [13] is 940 nM; in [11], 1400 ± 100 nM; in data set [14], 180 nM; in data set [15], more than 10000 nM; in data set [12], more than 20000 nM. For the same molecule, the “fold improvement in cytotoxicity sensitivity compared to 7, UACC-257” value in [1] (UACC-257 melanoma) is on record as approximately 35 fold. Also, the IC20 in data set [12] amounted to 5000 ± 1500 nM.

With `C=C(CN1CCN(c2ccc(C(F)(F)F)cc2)CC1)c1ccc(C(=O)Nc2ccccc2N)cc1` [Compound 5, N-(2-aminophenyl)-4–(3-(4–(4-(trifluoromethyl)phenyl)piperazin-1-yl)prop-1-en-2-yl)benzamide], the half-inhibitory concentration (IC50) in data set [1] was determined as 2390 nM; in [3] it was 7520 nM; in [4], 75700 nM; in data set [5], 19300 nM; in data set [6], 7670 nM; in [7] it was 12100 nM. Moreover, the IC50 is 3940 nM in data set [8]; 600 nM in [9]; 3600 nM in [13]; 400 ± 400 nM in [11]; 300 nM in data set [14]; more than 10000 nM in [15]. Also, in [12], the 50% inhibitory concentration (IC50) is more than 20000 nM. Further, the concentration for an effect of 20% (IC20) in [12] was determined as 5800 ± 1800 nM.

For the molecule `C=C(CN1CCN(c2ccccn2)CC1)c1ccc(C(=O)Nc2ccccc2N)cc1` [Compound 6, N-(2-aminophenyl)-4–(3-(4-(pyridin-2-yl)piperazin-1-yl)prop-1-en-2-yl)benzamide], the concentration for half-maximal inhibition (IC50) amounted to 2320 nM in data set [1]; 1300 nM in data set [7]; 5700 nM in [8]; 2170 nM in [13]; 3200 ± 800 nM in data set [11]; 960 nM in [14]. For the same molecule, the IC50 is more than 10000 nM in data set [15] and more than 20000 nM in [12]. For the same molecule, the IC20 in data set [12] is more than 10000 nM.

As for `C=C(CN1CCN(c2cccc(C(F)(F)F)n2)CC1)c1ccc(C(=O)Nc2ccccc2N)cc1` [Compound 7, N-(2-aminophenyl)-4–(3-(4–(6-(trifluoromethyl)pyridin-2-yl)piperazin-1-yl)prop-1-en-2-yl)benzamide], the half-maximal inhibitory concentration (IC50) in data set [1] is 26500 nM; in data set [3] it was 13400 nM; in [4], 560 nM; in data set [5] it was 1060 nM; in data set [6], 970 nM; in data set [7], 2550 nM. Besides, the half-maximal inhibitory concentration (IC50) in data set [9] is 860 nM; in [13] it was 4620 nM; in [11] it was 800 ± 300 nM; in data set [17], 3970 nM; in [15], more than 10000 nM; in data set [12], more than 20000 nM. The “tubulin acetylation (flow cytometry)” value in data set [2] was “No change in Tubulin acetylation status; also recorded: neither 1 nor 7 induced a measurable change in tubulin acetylation”. The systemic toxicity entry in [16] (100 mg/kg i.p., 5 consecutive days) is listed as “No systemic toxicity”. The molecule also showed an MTD in data set [16] (female, CD-1 nude (Crl:CD1-Foxn1^nu), mouse, in vivo, ip, single dose on 5 consecutive days) of 100 mg/kg. Further, the “acetylated histone H4 (flow cytometry)” value in [10] was “Increased acetylated histone H4; also recorded: Increased induction in histone H4 acetylation”. Also, the IC20 in [12] amounted to 800 ± 200 nM.
